Measurements: US8383577B2 (Endo Pharmaceuticals Solutions, Inc., priority 2008, dated 2013)

What was measured:
[1] = cited from earlier work; for CMC: critical micelle concentration; for HLB: hydrophilic-lipophilic balance
[2] = Formulation study: effect of excipient on implant shape and durability (Example 3); assay type: physicochemical; conditions: cartridges about 28% HEMA, about 66.5% HPMA, 5% glycerin
Text: A series of implants was monitored to determine the effect of excipient on implant shape and durability. Each of the polymer cartridges was composed of about 28% HEMA, about 66.5% HPMA and 5% glycerin.

IGF-1 = conditions: acromegaly patients on octreotide; cited from earlier work
GH = conditions: following a subcutaneous octreotide injection; cited from earlier work

Compound	CMC [1]	HLB [1]	stabilization of the octreotide implant by excipient [2]	further results
CCCCCCCC/C=C\CCCCCCCC(=O)OCCOCC(OCCO)C1OCC(OCCO)C1OCCO (stereo not shown) [Tween 80]	0.012 mM	15	–	–
O=C(O)CO [glycolic acid]	–	–	did not provide a stabilizing effect and resulted in a decrease in integrity	–
OC[C@@H](O)[C@@H](O)[C@H](O)[C@H](O)CO [mannitol]	–	–	did not provide a stabilizing effect and resulted in a decrease in integrity	–
L-cysteinamide, D-phenylalanyl-L-cysteiny-L-phenylalanyl-D-tryptophyl-L-lysyl-L-threonyl-N-[2-hydroxy-1-(hydroxymethyl)propyl]-, cyclic(2→7)-disulfide; [Octreotide, L-cysteinamide, D-phenylalanyl-L-cysteiny-L-phenylalanyl-D-tryptophyl-L-lysyl-L-threonyl-N-[2-hydroxy-1-(hydroxymethyl)propyl]-, cyclic(2→7)-disulfide; [R-(R*,R*)]]	–	–	–	patients with normalization of IGF-1 levels (IGF-1): up to 60 % of patients; time to GH level decrease (GH): usually decrease within two hours
Sucrose monolaurate	0.2 mM	~8	–	–
Triton X-100	0.2 to 0.9 mM	13.5	–	–
